Consider 4 molecules from article doi:10.1101/2022.11.14.516475v2 (biorxiv, 2022).

The term IC50 denotes the concentration at which inhibition is half-maximal. A higher IC50 goes with weaker potency in that assay. Broadly, the inhibition is how much of the control response was suppressed. One may read the koff as a measure of how fast the partners let go of each other.

Data set [1] addresses T1, hERG K+ channel (Homo sapiens, UniProt Q12809).
T1 construct: gene KCNH2; expressed in HEK293 cells (Cyprotex), automated patch clamp
Briefly: automated whole-cell patch clamp, HEK293, tail current. The class given is cell-based. To be noted: hek293 cells. Background: The patch-clamp technique gives a direct electrical read-out from membranes.

Data set [2] has as its target T2, 5-HT2C serotonin receptor (Homo sapiens, UniProt P28335).
T2 construct: gene HTR2C
T2 sequence (P28335 33-458): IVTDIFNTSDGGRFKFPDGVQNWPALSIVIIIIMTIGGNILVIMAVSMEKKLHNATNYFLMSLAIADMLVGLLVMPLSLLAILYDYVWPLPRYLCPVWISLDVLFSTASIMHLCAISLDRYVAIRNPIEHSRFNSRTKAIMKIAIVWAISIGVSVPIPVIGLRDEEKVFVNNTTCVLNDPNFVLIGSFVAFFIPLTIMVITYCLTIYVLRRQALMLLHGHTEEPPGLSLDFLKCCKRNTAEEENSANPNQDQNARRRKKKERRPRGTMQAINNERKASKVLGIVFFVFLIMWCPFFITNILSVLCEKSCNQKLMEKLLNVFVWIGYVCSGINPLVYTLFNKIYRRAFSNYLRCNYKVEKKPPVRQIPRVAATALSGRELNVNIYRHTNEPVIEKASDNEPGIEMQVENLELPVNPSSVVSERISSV
The data set is described as follows: PDSP radioligand binding competition. To be noted: read-out: % inhibition at 10 μM.

In data set [3] the target is T3, 5-HT7 serotonin receptor (Homo sapiens, UniProt P34969).
T3 construct: gene HTR7
Briefly: PDSP radioligand binding competition. The settings on record: read-out: % inhibition at 10 μM.

For data set [4], the target named is T4, 5-HT2A serotonin receptor (Homo sapiens, UniProt P28223).
T4 construct: gene HTR2A; DiscoverX gpcrMAX PathHunter beta-arrestin cell line, enzyme-fragment tagged receptor
Briefly: DiscoverX gpcrMAX beta-arrestin recruitment, antagonist mode. The class given is cell-based. To be noted: read-out: % inhibition at 10 μM. A general note: Recruitment of arrestin is a read-out of receptor activation apart from second messengers.

Data set [5] concerns the target T5, D2 (Homo sapiens, UniProt P14416). The data set is described as follows: biochemical. Details: gene DRD2; PDSP radioligand binding competition, single concentration, % inhibition of specific binding. To be noted: read-out: ML321 (10 µM) % Inhibition.
In data set [6] the target is T6, D3 (Homo sapiens, UniProt P35462).
T6 construct: gene DRD3
The data set is described as follows: biochemical. To be noted: read-out: ML321 (10 µM) % Inhibition. On the set-up: PDSP radioligand binding competition, single concentration, % inhibition of specific binding. The procedure: ML321 was screened using the National Institute of Mental Health Psychoactive Drug Screening Program (PDSP) directed by Dr. Bryan L. Roth (University of North Carolina, Chapel Hill, NC). For experimental details including radioligands used and associated Kd values for each individual target, please refer to the PDSP website http://pdsp.med.unc.edu/. […] Assays were performed in triplicate. To further assess ML321 selectivity amongst a larger group of drug targets, we used the NIMH Psychoactive Drug Screening Program (PDSP), which utilizes radioligand binding competition assays for 46 unique GPCRs, transporters and ion channels. For screening, a single high concentration (10 µM) of ML321 was used to compete for radioligand binding to the PDSP targets (Figure 1C).

In data set [7] the target is T7, SNAP-tagged human D2SR (SNAP-D2RS) (Homo sapiens, UniProt P14416).
T7 construct: gene DRD2
Briefly: biochemical. On the set-up: TR-FRET competition kinetic binding with PPHT-red, Motulsky-Mahan fit. To be noted: read-out: koff (min^-1). The class given is CHO cell membranes.

Data set [8] concerns the target T5, D2. The class given is binding. Details: gene DRD2; full length; pcDNA3.1 mutants); DiscoverX beta-galactosidase fragment fusion for beta-arrestin assay. The settings on record: wild-type control.
Data set [9] deals with T7, SNAP-tagged human D2SR (SNAP-D2RS). Briefly: TR-FRET association kinetics. It counts as binding. The settings on record: labelled compound; read-out: Kd (koff / kon). In general terms: Time-resolved FRET reads energy transfer from a long-lived donor to a nearby acceptor.
For data set [10], the target named is T5, D2. The class given is cell-based. Details: gene DRD2; full length; pcDNA3.1 mutants); DiscoverX beta-galactosidase fragment fusion for beta-arrestin assay. To be noted: agonist.

T5 sequence (P14416 whole entry): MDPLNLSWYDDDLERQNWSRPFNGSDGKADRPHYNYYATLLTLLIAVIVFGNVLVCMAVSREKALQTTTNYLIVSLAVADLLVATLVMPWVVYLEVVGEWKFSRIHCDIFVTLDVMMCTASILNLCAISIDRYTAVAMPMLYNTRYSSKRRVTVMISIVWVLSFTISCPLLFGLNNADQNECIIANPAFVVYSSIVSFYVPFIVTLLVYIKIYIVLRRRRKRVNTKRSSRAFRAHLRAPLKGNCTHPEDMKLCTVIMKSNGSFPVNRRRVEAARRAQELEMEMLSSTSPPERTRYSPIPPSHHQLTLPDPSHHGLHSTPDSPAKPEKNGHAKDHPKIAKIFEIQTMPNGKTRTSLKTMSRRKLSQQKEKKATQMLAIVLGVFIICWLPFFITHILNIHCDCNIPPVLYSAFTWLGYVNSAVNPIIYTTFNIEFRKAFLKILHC
T7 sequence (P14416 1-414 isoform P14416-2): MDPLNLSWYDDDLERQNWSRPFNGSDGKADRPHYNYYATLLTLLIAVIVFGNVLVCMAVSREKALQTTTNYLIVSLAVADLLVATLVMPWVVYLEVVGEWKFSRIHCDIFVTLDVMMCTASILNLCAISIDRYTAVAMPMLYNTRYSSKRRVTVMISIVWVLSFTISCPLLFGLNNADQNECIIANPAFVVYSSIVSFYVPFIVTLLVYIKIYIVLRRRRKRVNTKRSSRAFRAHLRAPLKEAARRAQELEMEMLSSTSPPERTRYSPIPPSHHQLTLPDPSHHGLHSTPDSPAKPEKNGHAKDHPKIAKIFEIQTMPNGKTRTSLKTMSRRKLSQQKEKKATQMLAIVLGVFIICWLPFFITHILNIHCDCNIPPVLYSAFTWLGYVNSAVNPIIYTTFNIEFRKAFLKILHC
T3 sequence (P34969 whole entry): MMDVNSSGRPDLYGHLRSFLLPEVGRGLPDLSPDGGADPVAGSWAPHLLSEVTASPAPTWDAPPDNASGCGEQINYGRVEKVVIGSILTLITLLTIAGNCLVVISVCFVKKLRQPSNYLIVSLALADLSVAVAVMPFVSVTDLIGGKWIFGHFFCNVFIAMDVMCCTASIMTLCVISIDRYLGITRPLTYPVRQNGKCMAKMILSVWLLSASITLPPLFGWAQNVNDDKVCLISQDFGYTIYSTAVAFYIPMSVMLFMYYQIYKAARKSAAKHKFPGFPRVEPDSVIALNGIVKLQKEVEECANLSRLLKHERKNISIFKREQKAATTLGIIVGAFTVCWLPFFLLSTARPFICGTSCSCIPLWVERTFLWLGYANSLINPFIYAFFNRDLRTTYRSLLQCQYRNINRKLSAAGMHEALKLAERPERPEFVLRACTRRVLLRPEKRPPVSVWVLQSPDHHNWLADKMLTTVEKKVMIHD
T4 sequence (P28223 whole entry, the tested form may be a part): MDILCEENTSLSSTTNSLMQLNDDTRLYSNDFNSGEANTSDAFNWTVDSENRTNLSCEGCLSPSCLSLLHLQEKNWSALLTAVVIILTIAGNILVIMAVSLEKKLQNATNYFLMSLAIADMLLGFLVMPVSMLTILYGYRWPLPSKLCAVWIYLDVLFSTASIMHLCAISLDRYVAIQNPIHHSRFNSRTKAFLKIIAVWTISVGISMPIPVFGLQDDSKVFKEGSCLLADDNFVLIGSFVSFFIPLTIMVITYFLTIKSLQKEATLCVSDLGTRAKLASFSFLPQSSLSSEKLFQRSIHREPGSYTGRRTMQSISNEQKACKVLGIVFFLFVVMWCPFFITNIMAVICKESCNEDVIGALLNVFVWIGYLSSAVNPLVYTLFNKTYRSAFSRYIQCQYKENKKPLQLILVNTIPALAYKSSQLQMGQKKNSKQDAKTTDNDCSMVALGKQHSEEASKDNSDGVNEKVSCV
T6 sequence (P35462 whole entry): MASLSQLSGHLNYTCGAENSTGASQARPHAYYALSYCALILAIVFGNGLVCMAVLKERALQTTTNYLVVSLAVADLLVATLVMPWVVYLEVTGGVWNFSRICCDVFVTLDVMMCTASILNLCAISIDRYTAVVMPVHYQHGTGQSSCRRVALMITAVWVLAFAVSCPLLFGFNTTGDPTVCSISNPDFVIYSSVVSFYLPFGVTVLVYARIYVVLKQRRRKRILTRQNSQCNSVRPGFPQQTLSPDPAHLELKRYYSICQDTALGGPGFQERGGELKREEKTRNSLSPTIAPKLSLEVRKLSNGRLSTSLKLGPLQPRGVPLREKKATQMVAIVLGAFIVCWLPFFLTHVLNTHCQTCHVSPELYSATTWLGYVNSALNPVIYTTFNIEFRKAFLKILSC
T1 sequence (Q12809 whole entry): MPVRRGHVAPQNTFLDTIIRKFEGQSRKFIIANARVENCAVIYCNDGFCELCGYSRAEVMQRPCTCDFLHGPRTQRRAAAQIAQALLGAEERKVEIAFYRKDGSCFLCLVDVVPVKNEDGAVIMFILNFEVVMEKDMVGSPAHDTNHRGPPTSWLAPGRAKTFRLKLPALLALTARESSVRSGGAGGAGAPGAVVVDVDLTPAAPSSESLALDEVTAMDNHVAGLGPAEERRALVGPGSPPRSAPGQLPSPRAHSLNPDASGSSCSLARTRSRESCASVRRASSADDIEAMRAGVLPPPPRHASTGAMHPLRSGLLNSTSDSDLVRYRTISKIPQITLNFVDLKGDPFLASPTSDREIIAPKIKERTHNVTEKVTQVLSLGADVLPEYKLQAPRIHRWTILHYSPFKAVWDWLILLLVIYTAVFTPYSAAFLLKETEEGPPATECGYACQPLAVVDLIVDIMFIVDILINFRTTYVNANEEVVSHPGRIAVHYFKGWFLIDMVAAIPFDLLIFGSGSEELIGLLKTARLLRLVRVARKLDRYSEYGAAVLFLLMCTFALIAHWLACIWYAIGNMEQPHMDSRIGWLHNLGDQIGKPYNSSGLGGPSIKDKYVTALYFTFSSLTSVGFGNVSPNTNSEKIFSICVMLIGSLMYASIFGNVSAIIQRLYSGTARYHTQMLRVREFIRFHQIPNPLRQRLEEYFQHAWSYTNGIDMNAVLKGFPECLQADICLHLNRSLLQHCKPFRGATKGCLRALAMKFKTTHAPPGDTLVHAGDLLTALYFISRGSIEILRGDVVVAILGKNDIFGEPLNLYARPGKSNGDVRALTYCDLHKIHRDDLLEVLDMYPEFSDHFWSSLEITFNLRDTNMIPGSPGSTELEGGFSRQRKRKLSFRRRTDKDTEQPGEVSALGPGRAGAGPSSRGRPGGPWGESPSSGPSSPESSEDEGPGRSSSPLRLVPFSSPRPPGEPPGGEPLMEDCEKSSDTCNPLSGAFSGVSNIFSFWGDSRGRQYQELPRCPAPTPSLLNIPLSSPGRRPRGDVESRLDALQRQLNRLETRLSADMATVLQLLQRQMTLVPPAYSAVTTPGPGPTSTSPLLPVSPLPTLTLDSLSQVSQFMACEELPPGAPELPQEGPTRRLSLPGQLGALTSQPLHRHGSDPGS

Take `CN1C(=O)c2ccccc2[S@+]([O-])c2ccc(C(=O)NCCc3cccs3)cc21` [ML321]: in data set [1], the concentration for half-maximal inhibition (IC50) was greater than 25000 nM. In addition, the inhibition at 10 µM amounted to 64% in data set [2]; 53% in data set [3]; 48% in data set [4]; 92% in data set [5]; 59% in data set [6]. In addition, in data set [7], the off-rate constant (koff) is 1.3 min⁻¹.

With `O=C(CCCN1CCC2(CC1)C(=O)NCN2c1ccccc1)c1ccc(F)cc1` [spiperone], the Ki result in data set [8] is “performed using both ML321 and unlabeled spiperone (as a control) with the wild-type”.

As for PPHT-red, the Kd in [9] is 11.5 ± 0.16 nM.

Take `NCCc1ccc(O)c(O)c1` [dopamine]: the EC50 entry in data set [10] is “EC50 and IC50 values for dopamine and ML321, respectively, were determined”.
